Source: the kinase profiling compilation of Christmann-Franck et al. (2016)

What was measured:
Test in all cases: SelectScreen, TR FRET
ACVR1B (human) = ACVR1B (human) (UniProt P36896)
BMX (human) = BMX (human) (UniProt P51813)
CDC42BPA (human) = CDC42BPA (human) (UniProt Q5VT25)
CDK2 CCNA2 (human) = CDK2 CCNA2 (human) (UniProt P24941+P20248)
CDK7 CCNH MNAT1 (human) = CDK7 CCNH MNAT1 (human) (UniProt P50613+P51948+P51946)
CDK9 CCNT1 (human) = CDK9 CCNT1 (human) (UniProt O60563+P50750)
CSF1R (human) = CSF1R (human) (UniProt P07333)
CSF1R (human), sequence (P07333 whole entry, looked up): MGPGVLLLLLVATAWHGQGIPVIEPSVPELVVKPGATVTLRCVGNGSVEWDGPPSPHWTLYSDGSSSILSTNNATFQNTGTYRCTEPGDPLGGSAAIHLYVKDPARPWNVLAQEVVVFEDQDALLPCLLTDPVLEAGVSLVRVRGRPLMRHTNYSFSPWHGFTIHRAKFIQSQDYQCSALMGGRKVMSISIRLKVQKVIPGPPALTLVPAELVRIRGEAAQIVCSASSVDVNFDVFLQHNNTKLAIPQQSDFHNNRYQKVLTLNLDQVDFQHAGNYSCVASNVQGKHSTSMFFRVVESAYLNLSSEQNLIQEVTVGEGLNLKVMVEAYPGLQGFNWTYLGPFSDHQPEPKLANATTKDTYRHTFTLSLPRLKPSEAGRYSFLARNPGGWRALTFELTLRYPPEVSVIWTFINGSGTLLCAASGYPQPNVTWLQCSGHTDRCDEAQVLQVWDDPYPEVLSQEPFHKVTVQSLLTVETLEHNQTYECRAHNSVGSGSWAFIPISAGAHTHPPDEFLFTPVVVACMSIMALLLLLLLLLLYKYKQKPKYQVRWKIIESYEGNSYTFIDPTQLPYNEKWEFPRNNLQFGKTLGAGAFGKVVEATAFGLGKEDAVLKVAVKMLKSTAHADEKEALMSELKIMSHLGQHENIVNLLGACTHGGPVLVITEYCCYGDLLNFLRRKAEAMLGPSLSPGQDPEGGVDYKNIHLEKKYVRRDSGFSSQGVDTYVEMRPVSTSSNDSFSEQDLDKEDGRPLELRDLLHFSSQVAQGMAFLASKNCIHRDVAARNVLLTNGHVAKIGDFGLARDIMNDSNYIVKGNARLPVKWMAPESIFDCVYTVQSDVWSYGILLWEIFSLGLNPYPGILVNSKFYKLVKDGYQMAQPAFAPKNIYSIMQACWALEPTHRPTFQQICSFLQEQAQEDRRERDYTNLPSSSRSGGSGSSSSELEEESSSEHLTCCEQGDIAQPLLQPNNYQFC

DYRK1A (human) = DYRK1A (human) (UniProt Q13627)
GRK6 (human) = GRK6 (human) (UniProt P43250)
IKBKB (human) = IKBKB (human) (UniProt O14920)
IKBKE (human) = IKBKE (human) (UniProt Q14164)
INSR (human) = INSR (human) (UniProt P06213)
ITK (human) = ITK (human) (UniProt Q08881)
ITK (human), sequence (Q08881 whole entry, looked up): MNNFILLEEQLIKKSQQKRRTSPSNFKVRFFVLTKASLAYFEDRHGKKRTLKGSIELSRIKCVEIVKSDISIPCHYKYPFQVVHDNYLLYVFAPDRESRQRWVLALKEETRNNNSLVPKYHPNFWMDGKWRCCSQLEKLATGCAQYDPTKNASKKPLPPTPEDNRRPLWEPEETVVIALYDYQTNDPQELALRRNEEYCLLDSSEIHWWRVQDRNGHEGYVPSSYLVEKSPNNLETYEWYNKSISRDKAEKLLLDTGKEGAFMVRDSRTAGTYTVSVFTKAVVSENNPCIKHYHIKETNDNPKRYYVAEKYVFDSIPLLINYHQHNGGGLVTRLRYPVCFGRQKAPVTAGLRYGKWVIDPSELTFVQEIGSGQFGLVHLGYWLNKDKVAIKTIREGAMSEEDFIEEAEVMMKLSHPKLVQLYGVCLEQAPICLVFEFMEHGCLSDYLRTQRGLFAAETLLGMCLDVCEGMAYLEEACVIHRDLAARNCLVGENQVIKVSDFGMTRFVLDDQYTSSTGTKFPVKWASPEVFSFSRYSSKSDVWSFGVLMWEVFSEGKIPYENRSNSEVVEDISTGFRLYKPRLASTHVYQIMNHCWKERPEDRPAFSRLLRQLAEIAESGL

JAK1 JH1 JH2 (human) = JAK1 JH1 JH2 (human) (UniProt P23458)
JAK3 JH1 JH2 (human) = JAK3 JH1 JH2 (human) (UniProt P52333)
JAK3 JH1 JH2 (human), sequence (P52333 whole entry, looked up): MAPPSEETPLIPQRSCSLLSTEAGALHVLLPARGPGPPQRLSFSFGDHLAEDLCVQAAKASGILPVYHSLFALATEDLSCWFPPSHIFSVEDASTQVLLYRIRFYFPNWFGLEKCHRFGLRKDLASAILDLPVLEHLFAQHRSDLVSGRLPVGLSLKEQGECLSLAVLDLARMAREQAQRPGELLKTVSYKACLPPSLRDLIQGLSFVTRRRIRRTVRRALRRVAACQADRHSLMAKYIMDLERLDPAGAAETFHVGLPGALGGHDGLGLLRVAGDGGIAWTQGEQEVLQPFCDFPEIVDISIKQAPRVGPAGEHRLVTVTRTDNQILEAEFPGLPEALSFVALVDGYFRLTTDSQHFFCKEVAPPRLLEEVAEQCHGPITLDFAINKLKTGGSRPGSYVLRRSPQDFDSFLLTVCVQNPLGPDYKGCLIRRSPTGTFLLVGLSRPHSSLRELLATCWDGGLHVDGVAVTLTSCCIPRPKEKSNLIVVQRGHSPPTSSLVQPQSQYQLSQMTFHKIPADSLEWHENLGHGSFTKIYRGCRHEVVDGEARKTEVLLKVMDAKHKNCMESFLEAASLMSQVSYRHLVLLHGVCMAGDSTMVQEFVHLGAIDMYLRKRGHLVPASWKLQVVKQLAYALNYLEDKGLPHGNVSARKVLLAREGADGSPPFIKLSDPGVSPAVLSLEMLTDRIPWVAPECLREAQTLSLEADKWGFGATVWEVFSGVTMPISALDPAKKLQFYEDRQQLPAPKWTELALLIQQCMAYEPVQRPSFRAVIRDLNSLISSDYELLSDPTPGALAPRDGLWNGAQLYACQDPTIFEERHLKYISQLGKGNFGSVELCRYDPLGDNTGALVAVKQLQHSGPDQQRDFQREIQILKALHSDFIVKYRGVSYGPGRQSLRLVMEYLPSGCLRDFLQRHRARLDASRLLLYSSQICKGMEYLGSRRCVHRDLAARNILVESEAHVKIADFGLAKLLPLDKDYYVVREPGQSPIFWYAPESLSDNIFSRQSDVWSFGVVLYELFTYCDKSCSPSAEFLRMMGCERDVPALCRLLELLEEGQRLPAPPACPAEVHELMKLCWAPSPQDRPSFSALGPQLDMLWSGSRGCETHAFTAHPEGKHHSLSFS

KIT (human) = KIT (human) (UniProt P10721)
MST4 (human) = MST4 (human) (UniProt Q9P289)
NTRK1 (human) = NTRK1 (human) (UniProt P04629)
NUAK1 (human) = NUAK1 (human) (UniProt O60285)
NUAK1 (human), sequence (O60285 whole entry, looked up): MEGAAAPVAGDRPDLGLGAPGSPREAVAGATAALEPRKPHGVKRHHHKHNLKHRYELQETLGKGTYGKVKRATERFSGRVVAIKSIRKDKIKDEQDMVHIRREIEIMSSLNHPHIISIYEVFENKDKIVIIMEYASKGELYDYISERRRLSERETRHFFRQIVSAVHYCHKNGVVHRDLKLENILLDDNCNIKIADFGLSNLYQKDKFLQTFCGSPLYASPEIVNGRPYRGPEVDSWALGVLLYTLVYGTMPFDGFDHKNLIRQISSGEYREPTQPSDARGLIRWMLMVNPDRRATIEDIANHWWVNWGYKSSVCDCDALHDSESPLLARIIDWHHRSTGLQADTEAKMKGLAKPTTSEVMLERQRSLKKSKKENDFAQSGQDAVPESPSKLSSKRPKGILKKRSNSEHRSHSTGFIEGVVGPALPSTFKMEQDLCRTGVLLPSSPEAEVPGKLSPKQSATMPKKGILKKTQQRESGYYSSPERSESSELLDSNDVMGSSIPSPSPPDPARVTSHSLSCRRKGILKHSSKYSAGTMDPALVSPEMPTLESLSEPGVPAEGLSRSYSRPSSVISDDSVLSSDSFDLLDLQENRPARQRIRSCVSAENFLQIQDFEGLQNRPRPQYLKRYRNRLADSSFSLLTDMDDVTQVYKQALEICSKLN

PASK (human) = PASK (human) (UniProt Q96RG2)
PDPK1 (human) = PDPK1 (human) (UniProt O15530)
PLK1 (human) = PLK1 (human) (UniProt P53350)
PRKACA (human) = PRKACA (human) (UniProt P17612)
PTK6 (human) = PTK6 (human) (UniProt Q13882)
SPHK1 (human) = SPHK1 (human) (UniProt Q9NYA1)
SPHK1 (human), sequence (Q9NYA1 whole entry, looked up): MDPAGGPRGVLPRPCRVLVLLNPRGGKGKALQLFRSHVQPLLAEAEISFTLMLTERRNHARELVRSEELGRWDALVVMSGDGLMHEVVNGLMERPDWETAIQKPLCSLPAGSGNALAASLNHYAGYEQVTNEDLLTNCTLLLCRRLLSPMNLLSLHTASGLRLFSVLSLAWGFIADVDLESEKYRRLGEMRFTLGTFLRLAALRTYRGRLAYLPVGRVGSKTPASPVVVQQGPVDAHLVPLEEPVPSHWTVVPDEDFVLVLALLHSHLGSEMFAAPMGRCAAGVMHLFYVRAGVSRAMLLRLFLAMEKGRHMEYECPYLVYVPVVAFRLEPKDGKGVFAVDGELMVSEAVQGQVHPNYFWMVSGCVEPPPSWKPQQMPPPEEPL

SRPK1 (human) = SRPK1 (human) (UniProt Q96SB4)
TYK2 JH1 JH2 (human) = TYK2 JH1 JH2 (human) (UniProt P29597)
ZAP70 (human) = ZAP70 (human) (UniProt P43403)

ACVR1B (human), sequence (P36896 whole entry, looked up): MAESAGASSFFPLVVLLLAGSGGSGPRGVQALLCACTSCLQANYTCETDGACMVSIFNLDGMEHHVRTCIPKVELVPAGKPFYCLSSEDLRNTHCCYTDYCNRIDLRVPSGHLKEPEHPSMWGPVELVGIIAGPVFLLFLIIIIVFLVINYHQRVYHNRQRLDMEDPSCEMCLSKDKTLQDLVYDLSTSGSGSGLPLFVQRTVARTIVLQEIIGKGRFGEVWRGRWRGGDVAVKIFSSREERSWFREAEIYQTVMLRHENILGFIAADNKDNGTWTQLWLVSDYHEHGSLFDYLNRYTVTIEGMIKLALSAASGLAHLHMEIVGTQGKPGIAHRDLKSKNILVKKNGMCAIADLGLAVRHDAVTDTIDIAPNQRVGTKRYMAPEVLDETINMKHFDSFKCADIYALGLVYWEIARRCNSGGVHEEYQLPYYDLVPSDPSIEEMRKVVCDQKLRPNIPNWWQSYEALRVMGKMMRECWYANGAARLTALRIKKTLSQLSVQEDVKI
BMX (human), sequence (P51813 whole entry, looked up): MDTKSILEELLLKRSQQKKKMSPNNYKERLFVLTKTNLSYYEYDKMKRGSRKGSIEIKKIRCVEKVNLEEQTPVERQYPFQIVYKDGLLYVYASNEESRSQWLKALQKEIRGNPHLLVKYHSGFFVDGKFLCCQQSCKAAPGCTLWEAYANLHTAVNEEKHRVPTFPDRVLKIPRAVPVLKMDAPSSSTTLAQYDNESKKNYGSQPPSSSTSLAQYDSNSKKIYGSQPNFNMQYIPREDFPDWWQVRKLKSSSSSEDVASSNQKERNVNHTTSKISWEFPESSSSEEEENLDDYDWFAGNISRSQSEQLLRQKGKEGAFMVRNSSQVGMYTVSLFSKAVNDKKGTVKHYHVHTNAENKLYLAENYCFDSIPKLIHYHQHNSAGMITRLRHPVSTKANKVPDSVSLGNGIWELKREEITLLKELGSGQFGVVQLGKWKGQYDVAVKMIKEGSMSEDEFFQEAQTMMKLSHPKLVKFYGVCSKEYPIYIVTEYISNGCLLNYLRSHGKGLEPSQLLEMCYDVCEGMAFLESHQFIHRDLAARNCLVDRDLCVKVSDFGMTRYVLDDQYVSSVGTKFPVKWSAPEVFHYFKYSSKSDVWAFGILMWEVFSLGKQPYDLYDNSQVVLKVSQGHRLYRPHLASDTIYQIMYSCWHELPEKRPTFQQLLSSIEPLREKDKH

Cn1cc(-c2cnc3ccc4ccc(CC(=O)NCc5ccccn5)cc4c(=O)c3c2)cn1
inhibition (ACVR1B (human); compound 0.1 µM): 12.8%
inhibition (ACVR1B (human); compound 1.0 µM): 12.6%
inhibition (ACVR1B (human); compound 10.0 µM): 10.1%
inhibition (BMX (human); compound 0.1 µM): 7.2%
inhibition (BMX (human); compound 1.0 µM): 7.7%
inhibition (BMX (human); compound 10.0 µM): -77.3%
inhibition (CDC42BPA (human); compound 0.1 µM): 6.3%
inhibition (CDC42BPA (human); compound 1.0 µM): 8.7%
inhibition (CDC42BPA (human); compound 10.0 µM): 8.6%
inhibition (CDK2 CCNA2 (human); compound 0.1 µM): 17%
inhibition (CDK2 CCNA2 (human); compound 1.0 µM): 18.6%
inhibition (CDK2 CCNA2 (human); compound 10.0 µM): 18.3%
inhibition (CDK7 CCNH MNAT1 (human); compound 0.1 µM): 1%
inhibition (CDK7 CCNH MNAT1 (human); compound 1.0 µM): 6.4%
inhibition (CDK7 CCNH MNAT1 (human); compound 10.0 µM): 11.8%
inhibition (CDK9 CCNT1 (human); compound 0.1 µM): 9.4%
inhibition (CDK9 CCNT1 (human); compound 1.0 µM): 4.4%
inhibition (CDK9 CCNT1 (human); compound 10.0 µM): 10.8%
inhibition (CSF1R (human); compound 0.1 µM): 15.7%
inhibition (CSF1R (human); compound 1.0 µM): 25.8%
inhibition (CSF1R (human); compound 10.0 µM): 58.3%
inhibition (DYRK1A (human); compound 0.1 µM): 10.7%
inhibition (DYRK1A (human); compound 1.0 µM): 33.3%
inhibition (DYRK1A (human); compound 10.0 µM): 79%
inhibition (GRK6 (human); compound 0.1 µM): 5.6%
inhibition (GRK6 (human); compound 1.0 µM): 7%
inhibition (GRK6 (human); compound 10.0 µM): 13.4%
inhibition (IKBKB (human); compound 0.1 µM): 4.6%
inhibition (IKBKB (human); compound 1.0 µM): 6.6%
inhibition (IKBKB (human); compound 10.0 µM): 8.5%
inhibition (IKBKE (human); compound 0.1 µM): 7.5%
inhibition (IKBKE (human); compound 1.0 µM): 7%
inhibition (IKBKE (human); compound 10.0 µM): 8.6%
inhibition (INSR (human); compound 0.1 µM): 9.9%
inhibition (INSR (human); compound 1.0 µM): 7.3%
inhibition (INSR (human); compound 10.0 µM): 0.6%
inhibition (ITK (human); compound 0.1 µM): 1.8%
inhibition (ITK (human); compound 1.0 µM): 3.8%
inhibition (ITK (human); compound 10.0 µM): 35.8%
inhibition (JAK1 JH1 JH2 (human); compound 0.1 µM): 7.6%
inhibition (JAK1 JH1 JH2 (human); compound 1.0 µM): 12.3%
inhibition (JAK1 JH1 JH2 (human); compound 10.0 µM): 9.4%
inhibition (JAK3 JH1 JH2 (human); compound 0.1 µM): 9.3%
inhibition (JAK3 JH1 JH2 (human); compound 1.0 µM): 6.1%
inhibition (JAK3 JH1 JH2 (human); compound 10.0 µM): 25.6%
inhibition (KIT (human); compound 0.1 µM): 9.7%
inhibition (KIT (human); compound 1.0 µM): 13.2%
inhibition (KIT (human); compound 10.0 µM): 48.1%
inhibition (MST4 (human); compound 0.1 µM): 6.9%
inhibition (MST4 (human); compound 1.0 µM): 2.2%
inhibition (MST4 (human); compound 10.0 µM): -39.8%
inhibition (NTRK1 (human); compound 0.1 µM): 18.9%
inhibition (NTRK1 (human); compound 1.0 µM): 37.2%
inhibition (NTRK1 (human); compound 10.0 µM): 68.9%
inhibition (NUAK1 (human); compound 0.1 µM): -10.5%
inhibition (NUAK1 (human); compound 1.0 µM): 13.6%
inhibition (NUAK1 (human); compound 10.0 µM): 63.9%
inhibition (PASK (human); compound 0.1 µM): 7.5%
inhibition (PASK (human); compound 1.0 µM): 5.9%
inhibition (PASK (human); compound 10.0 µM): 11.1%
inhibition (PDPK1 (human); compound 0.1 µM): 3.3%
inhibition (PDPK1 (human); compound 1.0 µM): 9.3%
inhibition (PDPK1 (human); compound 10.0 µM): 25.4%
inhibition (PLK1 (human); compound 0.1 µM): 8.9%
inhibition (PLK1 (human); compound 1.0 µM): 11.2%
inhibition (PLK1 (human); compound 10.0 µM): 10%
inhibition (PRKACA (human); compound 0.1 µM): 6.3%
inhibition (PRKACA (human); compound 1.0 µM): 7.7%
inhibition (PRKACA (human); compound 10.0 µM): 9.5%
inhibition (PTK6 (human); compound 0.1 µM): 9.2%
inhibition (PTK6 (human); compound 1.0 µM): 12.5%
inhibition (PTK6 (human); compound 10.0 µM): 39.1%
inhibition (SPHK1 (human); compound 0.1 µM): -3.4%
inhibition (SPHK1 (human); compound 1.0 µM): -4.1%
inhibition (SPHK1 (human); compound 10.0 µM): -2.1%
inhibition (SRPK1 (human); compound 0.1 µM): 11.1%
inhibition (SRPK1 (human); compound 1.0 µM): 11.5%
inhibition (SRPK1 (human); compound 10.0 µM): 12.5%
inhibition (TYK2 JH1 JH2 (human); compound 0.1 µM): 5.1%
inhibition (TYK2 JH1 JH2 (human); compound 1.0 µM): 8%
inhibition (TYK2 JH1 JH2 (human); compound 10.0 µM): 23.7%
inhibition (ZAP70 (human); compound 0.1 µM): 18.4%
inhibition (ZAP70 (human); compound 1.0 µM): 17.4%
inhibition (ZAP70 (human); compound 10.0 µM): 15.2%
